From article PMC9632963, “Preclinical characterization and phase I clinical trial of CT053PTSA targets MET, AXL, and VEGFR2 in patients with advanced solid tumors” (Frontiers in Immunology, 2022)

System: patients with advanced solid tumors
Assay: Phase I trial: safety, tolerability, DLT, MTD (CTCAE v4.0)
Format: in vivo
Description: Eligible patients had at least one measurable lesion per RECIST v 1.1, Eastern Cooperative Oncology Group (ECOG) performance status of 0 or 1, and adequate hematological, renal, cardiac and hepatic functions. The primary objectives were to assess safety and tolerability as well as to determine the MTD, DLT, and dose recommended for further study. The secondary objectives were to assess the PK and preliminary efficacy of CT053PTSA.
An initial accelerated titration design was used in the 15 and 30 mg QD cohorts, and the “3+3” schema was used starting in the 60 mg QD cohort. […] The study protocol was approved by an institutional review board at Sun Yat-sen University Cancer Center. Written informed consent was obtained from all the patients before enrollment.
Descriptive statistics of safety are presented per CTCAE v4.0. Subjects who received at least one dose of CT053PTSA were considered eligible to be evaluated and included in safety analyses. […] According to the RECIST 1.1 criteria, imaging examinations were performed at each specified time point in the protocol. The antitumor activity was measured by RECIST1.1.

Q: For `Cc1c(C(=O)Nc2ccc(Oc3ccnc4cc(OCC(C)(C)O)ccc34)c(F)c2)c(=O)n(-c2ccccc2)n1C` [CT053PTSA], which “Nausea, All” value (30mg (n = 1)) is on record?
A: 0 n (%)

Q: What about the “Nausea, ≥ G3” value (30mg (n = 1)) of the same molecule?
A: 0 n (%)

Q: And the “Oropharyngeal pain, All” value (30mg (n = 1))?
A: 0 n (%)

Q: And the “Oropharyngeal pain, ≥ G3” value (30mg (n = 1))?
A: 0 n (%)

Q: What about the “Pain, All” value (30mg (n = 1)) of the same molecule?
A: 0 n (%)

Q: What about the “Pain, ≥ G3” value (30mg (n = 1)) of the same molecule?
A: 0 n (%)

Q: What about the “Palmar-plantar erythrodysaesthesia syndrome, All” value (30mg (n = 1)) of the same molecule?
A: 0 n (%)

Q: And the “Palmar-plantar erythrodysaesthesia syndrome, ≥ G3” value (30mg (n = 1))?
A: 0 n (%)

Q: And the “Platelet count decreased, All” value (30mg (n = 1))?
A: 0 n (%)

Q: And the “Platelet count decreased, ≥ G3” value (30mg (n = 1))?
A: 0 n (%)

Q: And the “Proteinuria, All” value (30mg (n = 1))?
A: 0 n (%)

Q: What about the “Proteinuria, ≥ G3” value (30mg (n = 1)) of the same molecule?
A: 0 n (%)

Q: And the “Pyrexia, All” value (30mg (n = 1))?
A: 0 n (%)

Q: What about the “Pyrexia, ≥ G3” value (30mg (n = 1)) of the same molecule?
A: 0 n (%)

Q: What about the “Sinus bradycardia, All” value (30mg (n = 1)) of the same molecule?
A: 0 n (%)

Q: And the “Sinus bradycardia, ≥ G3” value (30mg (n = 1))?
A: 0 n (%)

Q: And the “Stomatitis, All” value (30mg (n = 1))?
A: 0 n (%)

Q: And the “Stomatitis, ≥ G3” value (30mg (n = 1))?
A: 0 n (%)

Q: What about the “Vomiting, All” value (30mg (n = 1)) of the same molecule?
A: 0 n (%)

Q: And the “Vomiting, ≥ G3” value (30mg (n = 1))?
A: 0 n (%)

Q: What about the “leukopenia, All” value (30mg (n = 1)) of the same molecule?
A: 0 n (%)

Q: And the “leukopenia, ≥ G3” value (30mg (n = 1))?
A: 0 n (%)

Q: What about the “neutropenia, All” value (30mg (n = 1)) of the same molecule?
A: 0 n (%)

Q: What about the “neutropenia, ≥ G3” value (30mg (n = 1)) of the same molecule?
A: 0 n (%)

Q: What about the “transaminase elevation, All” value (30mg (n = 1)) of the same molecule?
A: 0 n (%)

Q: And the “transaminase elevation, ≥ G3” value (30mg (n = 1))?
A: 0 n (%)

Q: And the “Anaemia, All” value (60mg (n = 6))?
A: 0 n (%)

Q: And the “Anaemia, ≥ G3” value (60mg (n = 6))?
A: 0 n (%)

Q: What about the “Blood chloride decreased, All” value (60mg (n = 6)) of the same molecule?
A: 0 n (%)

Q: What about the “Blood chloride decreased, ≥ G3” value (60mg (n = 6)) of the same molecule?
A: 0 n (%)

Q: What about the “Blood creatinine increased, All” value (60mg (n = 6)) of the same molecule?
A: 0 n (%)

Q: What about the “Blood creatinine increased, ≥ G3” value (60mg (n = 6)) of the same molecule?
A: 0 n (%)

Q: What about the “Blood potassium decreased, All” value (60mg (n = 6)) of the same molecule?
A: 0 n (%)

Q: What about the “Blood potassium decreased, ≥ G3” value (60mg (n = 6)) of the same molecule?
A: 0 n (%)

Q: What about the “Blood sodium decreased, All” value (60mg (n = 6)) of the same molecule?
A: 0 n (%)

Q: What about the “Blood sodium decreased, ≥ G3” value (60mg (n = 6)) of the same molecule?
A: 0 n (%)

Q: And the “Blood uric acid increased, All” value (60mg (n = 6))?
A: 0 n (%)

Q: And the “Blood uric acid increased, ≥ G3” value (60mg (n = 6))?
A: 0 n (%)

Q: And the “Decreased appetite, All” value (60mg (n = 6))?
A: 0 n (%)

Q: And the “Decreased appetite, ≥ G3” value (60mg (n = 6))?
A: 0 n (%)

Q: And the “Diarrhea, All” value (60mg (n = 6))?
A: 0 n (%)

Q: What about the “Diarrhea, ≥ G3” value (60mg (n = 6)) of the same molecule?
A: 0 n (%)

Q: And the “Dizziness, All” value (60mg (n = 6))?
A: 0 n (%)

Q: And the “Dizziness, ≥ G3” value (60mg (n = 6))?
A: 0 n (%)

Q: What about the “Dry mouth, All” value (60mg (n = 6)) of the same molecule?
A: 0 n (%)

Q: And the “Dry mouth, ≥ G3” value (60mg (n = 6))?
A: 0 n (%)

Q: What about the “Electrocardiogram QT prolonged, All” value (60mg (n = 6)) of the same molecule?
A: 1 (16.7) n (%)

Q: What about the “Electrocardiogram QT prolonged, ≥ G3” value (60mg (n = 6)) of the same molecule?
A: 0 n (%)

Q: What about the “Electrolyte imbalance, All” value (60mg (n = 6)) of the same molecule?
A: 0 n (%)

Q: And the “Electrolyte imbalance, ≥ G3” value (60mg (n = 6))?
A: 0 n (%)

Q: What about the “Hemoglobin decreased, All” value (60mg (n = 6)) of the same molecule?
A: 0 n (%)

Q: And the “Hemoglobin decreased, ≥ G3” value (60mg (n = 6))?
A: 0 n (%)

Q: What about the “Hypertension, All” value (60mg (n = 6)) of the same molecule?
A: 0 n (%)

Q: And the “Hypertension, ≥ G3” value (60mg (n = 6))?
A: 0 n (%)

Q: And the “Hyponatremia, All” value (60mg (n = 6))?
A: 0 n (%)

Q: What about the “Hyponatremia, ≥ G3” value (60mg (n = 6)) of the same molecule?
A: 0 n (%)

Q: And the “Hypoparathyroidism, All” value (60mg (n = 6))?
A: 0 n (%)

Q: And the “Hypoparathyroidism, ≥ G3” value (60mg (n = 6))?
A: 0 n (%)

Q: What about the “Mouth ulceration, All” value (60mg (n = 6)) of the same molecule?
A: 0 n (%)

Q: What about the “Mouth ulceration, ≥ G3” value (60mg (n = 6)) of the same molecule?
A: 0 n (%)

Q: What about the “Nausea, All” value (60mg (n = 6)) of the same molecule?
A: 0 n (%)

Q: And the “Nausea, ≥ G3” value (60mg (n = 6))?
A: 0 n (%)

Q: And the “Oropharyngeal pain, All” value (60mg (n = 6))?
A: 0 n (%)

Q: And the “Oropharyngeal pain, ≥ G3” value (60mg (n = 6))?
A: 0 n (%)

Q: What about the “Pain, All” value (60mg (n = 6)) of the same molecule?
A: 0 n (%)

Q: What about the “Pain, ≥ G3” value (60mg (n = 6)) of the same molecule?
A: 0 n (%)

Q: And the “Palmar-plantar erythrodysaesthesia syndrome, All” value (60mg (n = 6))?
A: 0 n (%)

Q: And the “Palmar-plantar erythrodysaesthesia syndrome, ≥ G3” value (60mg (n = 6))?
A: 0 n (%)

Q: And the “Platelet count decreased, All” value (60mg (n = 6))?
A: 1 (16.7) n (%)

Q: What about the “Platelet count decreased, ≥ G3” value (60mg (n = 6)) of the same molecule?
A: 0 n (%)

Q: And the “Proteinuria, All” value (60mg (n = 6))?
A: 0 n (%)

Q: And the “Proteinuria, ≥ G3” value (60mg (n = 6))?
A: 0 n (%)

Q: What about the “Pyrexia, All” value (60mg (n = 6)) of the same molecule?
A: 0 n (%)

Q: And the “Pyrexia, ≥ G3” value (60mg (n = 6))?
A: 0 n (%)

Q: What about the “Sinus bradycardia, All” value (60mg (n = 6)) of the same molecule?
A: 0 n (%)

Q: And the “Sinus bradycardia, ≥ G3” value (60mg (n = 6))?
A: 0 n (%)

Q: What about the “Stomatitis, All” value (60mg (n = 6)) of the same molecule?
A: 0 n (%)

Q: What about the “Stomatitis, ≥ G3” value (60mg (n = 6)) of the same molecule?
A: 0 n (%)

Q: What about the “Vomiting, All” value (60mg (n = 6)) of the same molecule?
A: 0 n (%)

Q: What about the “Vomiting, ≥ G3” value (60mg (n = 6)) of the same molecule?
A: 0 n (%)

Q: What about the “leukopenia, All” value (60mg (n = 6)) of the same molecule?
A: 1 (16.7) n (%)

Q: And the “leukopenia, ≥ G3” value (60mg (n = 6))?
A: 0 n (%)

Q: What about the “neutropenia, All” value (60mg (n = 6)) of the same molecule?
A: 1 (16.7) n (%)

Q: And the “neutropenia, ≥ G3” value (60mg (n = 6))?
A: 0 n (%)

Q: And the “transaminase elevation, All” value (60mg (n = 6))?
A: 3 (50) n (%)

Q: And the “transaminase elevation, ≥ G3” value (60mg (n = 6))?
A: 0 n (%)

Q: What about the “Anaemia, All” value (100mg (n = 7)) of the same molecule?
A: 1 (14.3) n (%)

Q: And the “Anaemia, ≥ G3” value (100mg (n = 7))?
A: 0 n (%)

Q: And the “Blood chloride decreased, All” value (100mg (n = 7))?
A: 1 (14.3) n (%)

Q: What about the “Blood chloride decreased, ≥ G3” value (100mg (n = 7)) of the same molecule?
A: 0 n (%)

Q: And the “Blood creatinine increased, All” value (100mg (n = 7))?
A: 0 n (%)

Q: What about the “Blood creatinine increased, ≥ G3” value (100mg (n = 7)) of the same molecule?
A: 0 n (%)

Q: And the “Blood potassium decreased, All” value (100mg (n = 7))?
A: 0 n (%)

Q: And the “Blood potassium decreased, ≥ G3” value (100mg (n = 7))?
A: 0 n (%)

Q: What about the “Blood sodium decreased, All” value (100mg (n = 7)) of the same molecule?
A: 0 n (%)
